Test results taken from patent publication US20160002204A1 (Board of Regents, The University of Texas System, priority 2014, published 2016).

Tests used:
[1] = target: T1, GLS1 (purified recombinant human GAC) (Homo sapiens, UniProt O94925); test: GLS1 enzymatic activity assay (dual-coupled, Amplex UltraRed/resorufin); format: biochemical
T1 sequence (O94925 55-598 isoform O94925-3 limits assumed): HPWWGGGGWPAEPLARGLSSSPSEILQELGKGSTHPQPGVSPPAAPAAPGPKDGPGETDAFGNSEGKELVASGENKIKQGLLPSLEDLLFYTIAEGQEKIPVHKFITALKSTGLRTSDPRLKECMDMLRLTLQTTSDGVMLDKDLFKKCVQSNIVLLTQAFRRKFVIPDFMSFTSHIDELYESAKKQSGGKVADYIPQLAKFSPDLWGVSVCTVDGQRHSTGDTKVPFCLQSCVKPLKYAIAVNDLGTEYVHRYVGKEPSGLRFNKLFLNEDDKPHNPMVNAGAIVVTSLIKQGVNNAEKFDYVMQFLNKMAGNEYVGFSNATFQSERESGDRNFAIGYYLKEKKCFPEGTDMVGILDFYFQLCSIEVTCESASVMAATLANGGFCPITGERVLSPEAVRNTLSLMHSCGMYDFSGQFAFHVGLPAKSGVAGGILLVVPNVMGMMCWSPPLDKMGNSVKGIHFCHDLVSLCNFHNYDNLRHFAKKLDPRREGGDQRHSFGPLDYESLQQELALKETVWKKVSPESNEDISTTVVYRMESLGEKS
How it was run: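 In this coupled fluorometric format, phosphate-activated GAC (2 nM, 50 mM phosphate) is pre-exposed to compound for 10 min before 1 mM glutamine addition. Product is tracked as resorufin (530/590 nm) over time or at 20 min, and potency is derived by logistic fitting.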

A549 cells = test: A549 proliferation (viability) assay, Cell Titer Fluor, 72 hours; format: cell-based; details: Homo sapiens
How it was run: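 Compound was added to A549 cells (1000/well, pre-grown 24 h in RPMI 1640 plus 10% dialyzed FBS) at 0.5% DMSO and left 72 h under 37 °C, 5% CO2, ambient O2. Live-cell fluorescence (Cell Titer Fluor) gave the EC50.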

Row | IC50 [1] [nM] | EC50 (A549 cells) [nM] | SMILES
1 | < 100 | < 100 | O=C(NCc1cccc(OC(F)(F)F)c1)c1cn(CC(F)CCn2ccc(NC(=O)C(F)c3ccccc3)c(F)c2=O)nn1 (stereo not drawn) [Example 327, 1-{2-fluoro-4-[3-fluoro-4-(2-fluoro-2-phenylacetamido)-2-oxo-1,2-dihydropyridin-1-yl]butyl}-N-{[3-(trifluoromethoxy)phenyl]methyl}-1H-1,2,3-triazole-4-carboxamide]
2 | < 100 | < 100 | O=C(Cc1ccccc1F)Nc1ccn(CCC(F)Cn2cc(C(=O)NCc3cccc(OC(F)(F)F)c3)nn2)c(=O)c1F (stereo not drawn) [Example 328, 1-(2-fluoro-4-{3-fluoro-4-[2-(2-fluorophenyl)acetamido]-2-oxo-1,2-dihydropyridin-1-yl}butyl)-N-{[3-(trifluoromethoxy)phenyl]methyl}-1H-1,2,3-triazole-4-carboxamide]
3 | < 100 | < 100 | O=C(CC1CCCC1)Nc1ccn(CCC(F)Cn2cc(C(=O)NCc3cc(C(F)(F)F)ccn3)nn2)c(=O)c1F (stereo not drawn) [Example 329, 1-{4-[4-(2-cyclopentylacetamido)-3-fluoro-2-oxo-1,2-dihydropyridin-1-yl]-2-fluorobutyl}-N-{[4-(trifluoromethyl)pyridin-2-yl]methyl}-1H-1,2,3-triazole-4-carboxamide]
4 | < 100 | 100 to 500 | CC(C)(C)OC(=O)Nc1ccn(CCC(F)Cn2cc(C(=O)NCc3cncc(C(F)(F)F)c3)nn2)c(=O)c1F (stereo not drawn) [Example 330, tert-butyl N-(3-fluoro-1-{3-fluoro-4-[4-({[5-(trifluoromethyl)pyridin-3-yl]methyl}carbamoyl)-1H-1,2,3-triazol-1-yl]butyl}-2-oxo-1,2-dihydropyridin-4-yl)carbamate]
5 | 500 to 5000 | > 5000 | Nc1ccn(CCC(F)Cn2cc(C(=O)NCc3cncc(C(F)(F)F)c3)nn2)c(=O)c1F (stereo not drawn) [Example 331, 1-[4-(4-amino-3-fluoro-2-oxo-1,2-dihydropyridin-1-yl)-2-fluorobutyl]-N-{[5-(trifluoromethyl)pyridin-3-yl]methyl}-1H-1,2,3-triazole-4-carboxamide]
6 | < 100 | < 100 | O=C(CC1CCC1)Nc1ccn(CCC(F)Cn2cc(C(=O)NCc3cc(C(F)(F)F)ccn3)nn2)c(=O)c1F (stereo not drawn) [Example 332, 1-{4-[4-(2-cyclobutylacetamido)-3-fluoro-2-oxo-1,2-dihydropyridin-1-yl]-2-fluorobutyl}-N-{[4-(trifluoromethyl)pyridin-2-yl]methyl}-1H-1,2,3-triazole-4-carboxamide]
7 | < 100 | < 100 | O=C(Nc1ccn(CCC(F)Cn2cc(C(=O)NCc3cc(C(F)(F)F)ccn3)nn2)c(=O)c1F)C(=O)c1ccccc1 (stereo not drawn) [Example 333, 1-{2-fluoro-4-[3-fluoro-2-oxo-4-(2-oxo-2-phenylacetamido)-1,2-dihydropyridin-1-yl]butyl}-N-{[4-(trifluoromethyl)pyridin-2-yl]methyl}-1H-1,2,3-triazole-4-carboxamide]
8 | < 100 | < 100 | O=C(Cc1ccc(F)cc1F)Nc1ccn(CCC(F)Cn2cc(C(=O)NCc3cccc(OC(F)(F)F)c3)nn2)c(=O)c1F (stereo not drawn) [Example 334, 1-(4-{4-[2-(2,4-difluorophenyl)acetamido]-3-fluoro-2-oxo-1,2-dihydropyridin-1-yl}-2-fluorobutyl)-N-{[3-(trifluoromethoxy)phenyl]methyl}-1H-1,2,3-triazole-4-carboxamide]
9 | < 100 | 100 to 500 | O=C(Cc1c(F)cccc1F)Nc1ccn(CCC(F)Cn2cc(C(=O)NCc3cccc(OC(F)(F)F)c3)nn2)c(=O)c1F (stereo not drawn) [Example 335, l-(4-{4-[2-(2,6-difluorophenyl)acetamido]-3-fluoro-2-oxo-1,2-dihydropyridin-1-yl}-2-fluorobutyl)-N-{[3-(trifluoromethoxy)phenyl]methyl}-1H-1,2,3-triazole-4-carboxamide]
10 | < 100 | < 100 | O=C(CC1CCC1)Nc1ccn(CCC(F)Cn2cc(C(=O)NCc3cccc(C(F)(F)F)n3)nn2)c(=O)c1F (stereo not drawn) [Example 336, 1-{4-[4-(2-cyclobutylacetamido)-3-fluoro-2-oxo-1,2-dihydropyridin-1-yl]-2-fluorobutyl}-N-{[6-(trifluoromethyl)pyridin-2-yl]methyl}-1H-1,2,3-triazole-4-carboxamide]
11 | < 100 | < 100 | CC(C(=O)Nc1ccn(CCC(F)Cn2cc(C(=O)NCc3cccc(OC(F)(F)F)c3)nn2)c(=O)c1F)N1CCCCC1 (stereo not drawn) [Example 337, 1-(2-fluoro-4-(3-fluoro-2-oxo-4-(2-(piperidin-1-yl)propanamido)pyridin-1(2H)-yl)butyl)-N-(3-(trifluoromethoxy)benzyl)-1H-1,2,3-triazole-4-carboxamide]
12 | 100 to 500 | 100 to 500 | O=C(CN1CCCCC1)Nc1ccn(CCC(F)Cn2cc(C(=O)NCc3cccc(C(F)(F)F)n3)nn2)c(=O)c1F (stereo not drawn) [Example 338, 1-(2-fluoro-4-{3-fluoro-2-oxo-4-[2-(piperidin-1-yl)acetamido]-1,2-dihydropyridin-1-yl}butyl)-N-{[6-(trifluoromethyl)pyridin-2-yl]methyl}-1H-1,2,3-triazole-4-carboxamide]
13 | < 100 | < 100 | O=C(CC1CCC1)Nc1ccn(CCC(F)Cn2cc(C(=O)NCc3cccc(OC(F)(F)F)c3)nn2)c(=O)c1F (stereo not drawn) [Example 339, 1-{4-[4-(2-cyclobutylacetamido)-3-fluoro-2-oxo-1,2-dihydropyridin-1-yl]-2-fluorobutyl}-N-{[3-(trifluoromethoxy)phenyl]methyl}-1H-1,2,3-triazole-4-carboxamide]
14 | < 100 | < 100 | CC(C)(C)CC(=O)Nc1ccn(CCC(F)Cn2cc(C(=O)NCc3cccc(OC(F)(F)F)c3)nn2)c(=O)c1F (stereo not drawn) [Example 340, 1-{4-[4-(3,3-dimethylbutanamido)-3-fluoro-2-oxo-1,2-dihydropyridin-1-yl]-2-fluorobutyl}-N-{[3-(trifluoromethoxy)phenyl]methyl}-1H-1,2,3-triazole-4-carboxamide]
15 | < 100 | < 100 | O=C(NCc1cccc(OC(F)(F)F)c1)c1cn(CC(F)CCn2ccc(NC(=O)C3CCCCC3)c(F)c2=O)nn1 (stereo not drawn) [Example 341, 1-[4-(4-cyclohexaneamido-3-fluoro-2-oxo-1,2-dihydropyridin-1-yl)-2-fluorobutyl]-N-{[3-(trifluoromethoxy)phenyl]methyl}-1H-1,2,3-triazole-4-carboxamide]
16 | < 100 | < 100 | O=C(NCc1cccc(OC(F)(F)F)c1)c1cn(CC(F)CCn2ccc(NC(=O)C3CCCC3)c(F)c2=O)nn1 (stereo not drawn) [Example 342, 1-[4-(4-cyclopentaneamido-3-fluoro-2-oxo-1,2-dihydropyridin-1-yl)-2-fluorobutyl]-N-{[3-(trifluoromethoxy)phenyl]methyl}-1H-1,2,3-triazole-4-carboxamide]
17 | < 100 | < 100 | C[C@H](C(=O)Nc1ccn(CCC(F)Cn2cc(C(=O)NCc3cc(C(F)(F)F)ccn3)nn2)c(=O)c1F)c1ccccc1 (stereo partly drawn) [Example 343, 1-(2-fluoro-4-{3-fluoro-2-oxo-4-[(2S) 2-phenylpropanamido]-1,2-dihydropyridin-1-yl}butyl)-N-{[4-(trifluoromethyl)pyridin-2-yl]methyl}-1H-1,2,3-triazole-4-carboxamide]
18 | 100 to 500 | < 100 | O=C(CN1CCCCC1)Nc1ccn(CCC(F)Cn2cc(C(=O)NCc3cc(C(F)(F)F)ccn3)nn2)c(=O)c1F (stereo not drawn) [Example 344, 1-(2-fluoro-4-{3-fluoro-2-oxo-4-[2-(piperidin-1-yl)acetamido]-1,2-dihydropyridin-1-yl}butyl)-N-{[4-(trifluoromethyl)pyridin-2-yl]methyl}-1H-1,2,3-triazole-4-carboxamide]
19 | 100 to 500 | < 100 | CC(C(=O)Nc1ccn(CCC(F)Cn2cc(C(=O)NCc3cc(C(F)(F)F)ccn3)nn2)c(=O)c1F)N1CCCCC1 (stereo not drawn) [Example 345, 1-(2-fluoro-4-{3-fluoro-2-oxo-4-[2-(piperidin-1-yl)propanamido]-1,2-dihydropyridin-1-yl}butyl)-N-{[4-(trifluoromethyl)pyridin-2-yl]methyl}-1H-1,2,3-triazole-4-carboxamide]
20 | < 100 | < 100 | O=C(Nc1ccn(CCC(F)Cn2cc(C(=O)NCc3cccc(OC(F)(F)F)c3)nn2)c(=O)c1F)OC1CCCCC1 (stereo not drawn) [Example 346, cyclohexyl N-(3-fluoro-1-{3-fluoro-4-[4-({[3-(trifluoro-methoxy)phenyl]methyl}carbamoyl)-1H-1,2,3-triazol-1-yl]butyl}-2-oxo-1,2-dihydropyridin-4-yl)carbamate]
21 | 100 to 500 | > 5000 | CCOC(=O)C(=O)Nc1ccn(CCC(F)Cn2cc(C(=O)NCc3cccc(OC(F)(F)F)c3)nn2)c(=O)c1F (stereo not drawn) [Example 347, ethyl [(3-fluoro-1-{3-fluoro-4-[4-({[3-(trifluoromethoxy)phenyl]methyl}carbamoyl)-1H-1,2,3-triazol-1-yl]butyl}-2-oxo-1,2-dihydropyridin-4-yl)carbamoyl]formate]
